Biological target: 11β-HSD1 (Homo sapiens, UniProt P28845)
Assay: biochemical
Conditions: for IC50: IC50 Range, Biological Test Example 1, microsomes from CHO cells overexpressing human 11β-HSD1; for inhibition at 0.1 µM: read-out: Average % inhibition at 100 nM, Biological Test Example 1, 100 nM

Chain of 11β-HSD1 (P28845 whole entry): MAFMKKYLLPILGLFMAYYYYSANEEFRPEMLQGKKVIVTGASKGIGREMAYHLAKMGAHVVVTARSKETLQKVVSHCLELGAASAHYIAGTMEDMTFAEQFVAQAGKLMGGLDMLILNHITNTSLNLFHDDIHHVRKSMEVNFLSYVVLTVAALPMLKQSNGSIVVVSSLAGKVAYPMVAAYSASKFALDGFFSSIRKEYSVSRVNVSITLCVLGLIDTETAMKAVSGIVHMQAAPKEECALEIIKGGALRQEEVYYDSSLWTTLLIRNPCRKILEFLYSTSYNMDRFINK

SMILES	IC50 [µM]	inhibition at 0.1 µM [%]	inhibition at 0.1111 µM (read-out: Average % inhibition at 111.1 nM, Biological Test Example 1, 111.1 nM) [%]
C[C@@H](c1ccc(F)cc1)N1CC[C@](CC(C)(C)O)(c2ccccc2)OC1=O [EXAMPLE 413, (S)-3-((S)-1-(4-fluorophenyl)ethyl)-6-(2-hydroxy-2-methylpropyl)-6-phenyl-1,3-oxazinan-2-one]	< 0.1	95.3	
C[C@@H](c1ccc(F)cc1)N1CC[C@](CCCO)(c2ccccc2)OC1=O [EXAMPLE 414, (R)-3-((S)-1-(4-fluorophenyl)ethyl)-6-(3-hydroxypropyl)-6-phenyl-1,3-oxazinan-2-one]	< 0.1	94.4	
C[C@@H](c1ccc(F)cc1)N1CC[C@](CCC(N)=O)(c2ccccc2)OC1=O [EXAMPLE 415, 3-((R)-3-((S)-1-(4-fluorophenyl)ethyl)-2-oxo-6-phenyl-1,3-oxazinan-6-yl)propanamide]	< 0.1	87.6	
C[C@@H](c1ccc(F)cc1)N1CC[C@](CCC(C)(C)O)(c2ccccc2)OC1=O [EXAMPLE 416, (R)-3-((S)-1-(4-fluorophenyl)ethyl)-6-(3-hydroxy-3-methylbutyl)-6-phenyl-1,3-oxazinan-2-one]	< 0.1	55.1	
Cc1ccc([C@H](C)N2CC[C@](CC(C)(C)O)(c3ccc(F)cc3)OC2=O)cc1 [EXAMPLE 417, (S)-6-(4-fluorophenyl)-6-(2-hydroxy-2-methylpropyl)-3-((S)-1-p-tolylethyl)-1,3-oxazinan-2-one]	< 0.1	97.1	
Cc1ccc([C@H](C)N2CC[C@](CCCO)(c3ccc(F)cc3)OC2=O)cc1 [EXAMPLE 418, (R)-6-(4-fluorophenyl)-6-(3-hydroxypropyl)-3-((S)-1-p-tolylethyl)-1,3-oxazinan-2-one]	< 0.1	99.2	
Cc1ccc([C@H](C)N2CC[C@](CCCNS(C)(=O)=O)(c3ccc(F)cc3)OC2=O)cc1 [EXAMPLE 420, N-(3-((R)-6-(4-fluorophenyl)-2-oxo-3-((S)-1-p-tolylethyl)-1,3-oxazinan-6-yl)propyl)methanesulfonamide]	< 0.1	97.3	
Cc1ccc([C@H](C)N2CC[C@](CCO)(c3ccc(F)cc3)OC2=O)cc1 [EXAMPLE 421, (S)-6-(4-fluorophenyl)-6-(2-hydroxyethyl)-3-((S)-1-p-tolylethyl)-1,3-oxazinan-2-one]	< 0.1	96.1	
Cc1ccc([C@H](C)N2CC[C@](CC(C)(C)O)(c3ccccc3)OC2=O)cc1 [EXAMPLE 422, (S)-6-(2-hydroxy-2-methylpropyl)-6-phenyl-3-((S)-1-p-tolylethyl)-1,3-oxazinan-2-one]	< 0.1	100	
Cc1ccc([C@H](C)N2CC[C@](CCCO)(c3ccccc3)OC2=O)cc1 [EXAMPLE 423, (R)-6-(3-hydroxypropyl)-6-phenyl-3-((S)-1-p-tolylethyl)-1,3-oxazinan-2-one]	< 0.1	97.6	
Cc1ccc([C@H](C)N2CC[C@](CCC(N)=O)(c3ccccc3)OC2=O)cc1 [EXAMPLE 424, 3-((R)-2-oxo-6-phenyl-3-((S)-1-p-tolylethyl)-1,3-oxazinan-6-yl)propanamide]	< 0.1	97	
COc1ccc([C@H](C)N2CC[C@](CC(C)(C)O)(c3ccc(F)cc3)OC2=O)cc1 [EXAMPLE 425, (S)-6-(4-fluorophenyl)-6-(2-hydroxy-2-methylpropyl)-3-((S)-1-(4-methoxyphenyl)ethyl)-1,3-oxazinan-2-one]	< 0.1	96.2	
COc1ccc([C@H](C)N2CC[C@](CCC(C)(C)O)(c3ccc(F)cc3)OC2=O)cc1 [EXAMPLE 426, (R)-6-(4-fluorophenyl)-6-(3-hydroxy-3-methylbutyl)-3-((S)-1-(4-methoxyphenyl)ethyl)-1,3-oxazinan-2-one]	< 0.1	82.5	
COc1ccc([C@H](C)N2CC[C@](CC(C)(C)O)(c3ccccc3)OC2=O)cc1 [EXAMPLE 427, (S)-6-(2-hydroxy-2-methylpropyl)-3-((S)-1-(4-methoxyphenyl)ethyl)-6-phenyl-1,3-oxazinan-2-one]	< 0.1	97.8	
COc1ccc([C@H](C)N2CC[C@](CCC(C)(C)O)(c3ccccc3)OC2=O)cc1 [EXAMPLE 428, (R)-6-(3-hydroxy-3-methylbutyl)-3-((S)-1-(4-methoxyphenyl)ethyl)-6-phenyl-1,3-oxazinan-2-one]	< 0.1	82	
Cc1cc(-c2ccc([C@H](C)N3CC[C@](CC(C)(C)O)(c4ccc(F)cc4)OC3=O)cc2)ccn1 [EXAMPLE 449, (S)-6-(4-fluorophenyl)-6-(2-hydroxy-2-methylpropyl)-3-((S)-1-(4-(2-methylpyridin-4-yl)phenyl)ethyl)-1,3-oxazinan-2-one]			99.4

SMILES	IC50 [µM]	inhibition at 0.1 µM [%]	inhibition at 0.1111 µM (read-out: Average % inhibition at 111.1 nM, Biological Test Example 1, 111.1 nM) [%]
C[C@@H](c1ccc(-c2ccc(F)cc2)cc1)N1CC[C@](CCN2CCC2)(c2ccc(F)cc2)OC1=O [EXAMPLE 462, (R)-6-(2-(azetidin-1-yl)ethyl)-3-((S)-1-(4′-fluorobiphenyl-4-yl)ethyl)-6-(4-fluorophenyl)-1,3-oxazinan-2-one]	< 0.1	72.3	
C[C@@H](c1ccc(-c2ccc(F)cc2)cc1)N1CC[C@](CCNCCF)(c2ccc(F)cc2)OC1=O [EXAMPLE 463, (R)-3-((S)-1-(4′-fluorobiphenyl-4-yl)ethyl)-6-(2-(2-fluoroethylamino)ethyl)-6-(4-fluorophenyl)-1,3-oxazinan-2-one]	< 0.1	81.3	
C[C@@H](c1ccc(-c2ccc(F)cc2)cc1)N1CC[C@](CCN2CCCC2)(c2ccc(F)cc2)OC1=O [EXAMPLE 464, (R)-3-((S)-1-(4′-fluorobiphenyl-4-yl)ethyl)-6-(4-fluorophenyl)-6-(2-(pyrrolidin-1-yl)ethyl)-1,3-oxazinan-2-one]	< 0.1	80.2	
C[C@@H](c1ccc(-c2ccc(F)cc2)cc1)N1CC[C@](CCN2CC[C@H](F)C2)(c2ccc(F)cc2)OC1=O [EXAMPLE 465, (R)-3-((S)-1-(4′-fluorobiphenyl-4-yl)ethyl)-6-(4-fluorophenyl)-6-(2-((S)-3-fluoropyrrolidin-1-yl)ethyl)-1,3-oxazinan-2-one]	< 0.1	65	
C[C@@H](c1ccc(-c2ccc(F)cc2)cc1)N1CC[C@](CCN2CC[C@@H](F)C2)(c2ccc(F)cc2)OC1=O [EXAMPLE 466, (R)-3-((S)-1-(4′-fluorobiphenyl-4-yl)ethyl)-6-(4-fluorophenyl)-6-(2-((R)-3-fluoropyrrolidin-1-yl)ethyl)-1,3-oxazinan-2-one]	< 0.1	55.3	
C[C@@H](c1ccc(-c2ccc(F)cc2)cc1)N1CC[C@](CCN2CCNC(=O)C2)(c2ccc(F)cc2)OC1=O [EXAMPLE 467, (R)-3-((S)-1-(4′-fluorobiphenyl-4-yl)ethyl)-6-(4-fluorophenyl)-6-(2-(3-oxopiperazin-1-yl)ethyl)-1,3-oxazinan-2-one]	< 0.1	81.2	
C[C@@H](c1ccc(-c2ccccc2)cc1)N1CC[C@](CCO)(c2ccccc2)OC1=O [EXAMPLE 489, (S)-3-((S)-1-(biphenyl-4-yl)ethyl)-6-(2-hydroxyethyl)-6-phenyl-1,3-oxazinan-2-one]	< 0.1	98.3	
C[C@@H](c1ccc(-c2ccccc2)cc1)N1CC[C@](CCCO)(c2ccccc2)OC1=O [EXAMPLE 490, (R)-3-((S)-1-(biphenyl-4-yl)ethyl)-6-(3-hydroxypropyl)-6-phenyl-1,3-oxazinan-2-one]	< 0.1	94.8	
C[C@@H](c1ccc(-c2ccc(F)cc2)cc1)N1CC[C@](CCN2CCOCC2)(c2ccccc2)OC1=O [EXAMPLE 491, (R)-3-((S)-1-(4′-fluorobiphenyl-4-yl)ethyl)-6-(2-morpholinoethyl)-6-phenyl-1,3-oxazinan-2-one]	< 0.1	99.3	
C[C@@H](c1ccc(-c2ccc(F)cc2F)cc1)N1CC[C@](CCCOP(=O)(O)O)(c2ccccc2)OC1=O [EXAMPLE 492, 3-((R)-3-((S)-1-(2′,4′-difluorobiphenyl-4-yl)ethyl)-2-oxo-6-phenyl-1,3-oxazinan-6-yl)propyl dihydrogen phosphate]	< 0.1	87.7	
C[C@@H](c1ccc(-c2cccc(CN)c2)cc1)N1CC[C@](CCCO)(c2ccccc2)OC1=O [EXAMPLE 493, (R)-3-((S)-1-(3′-(aminomethyl)biphenyl-4-yl)ethyl)-6-(3-hydroxypropyl)-6-phenyl-1,3-oxazinan-2-one]	< 0.1	89.1	
C[C@@H](c1ccc(-c2ccc(CO)cc2)cc1)N1CC[C@](CCCO)(c2ccccc2)OC1=O [EXAMPLE 494, (R)-3-((S)-1-(4′-(hydroxymethyl)biphenyl-4-yl)ethyl)-6-(3-hydroxypropyl)-6-phenyl-1,3-oxazinan-2-one]	< 0.1	100	
C[C@@H](c1ccc(-c2ccc(CN)cc2)cc1)N1CC[C@](CCCO)(c2ccccc2)OC1=O [EXAMPLE 495, (R)-3-((S)-1-(4′-(aminomethyl)biphenyl-4-yl)ethyl)-6-(3-hydroxypropyl)-6-phenyl-1,3-oxazinan-2-one]	< 0.1	95.8	
C[C@@H](c1ccc(Cl)c(F)c1)N1CC[C@](CCCO)(c2ccc(F)cc2)OC1=O [EXAMPLE 498, (R)-3-((S)-1-(4-chloro-3-fluorophenyl)ethyl)-6-(4-fluorophenyl)-6-(3-hydroxypropyl)-1,3-oxazinan-2-one]	< 0.1	97.8	
C[C@@H](c1ccc(Br)cc1)N1CC[C@](CC2(O)CC2)(c2ccc(F)cc2)OC1=O [EXAMPLE 500, (S)-3-((S)-1-(4-bromophenyl)ethyl)-6-(4-fluorophenyl)-6-((1-hydroxycyclopropyl)methyl)-1,3-oxazinan-2-one]	< 0.1	98.2	
C[C@@H](c1ccc(-c2ccc(F)cc2F)cc1)N1CC[C@](CCC(=O)O)(c2ccccc2)OC1=O [EXAMPLE 503, 3-((R)-3-((S)-1-(2′,4′-difluorobiphenyl-4-yl)ethyl)-2-oxo-6-phenyl-1,3-oxazinan-6-yl)propanoic acid]	< 0.1	90.1	
